Experimental data published in US20080191164A1, “Method For the Treatment of a Material Other Than the Human Body” (priority 2005, published 2008).
Values belong to the molecule of their own block, whether it stands above or below them.

Tests used:
[1] = Flammability / flashpoint of the compositions; type: physicochemical; set-up: key to FLA = flammability: − = no; +/° C. = yes/flashpoint
[2] = Volatility / aptitude for drying; type: physicochemical; set-up: key: 0 = low; + = moderate; ++ = high
Rinsability with water = type: physicochemical; set-up: key: 0 = poor; + = good; ++ = excellent
[3] = background statement; cited from earlier work
[4] = Biodegradability (general properties table)
[5] = Risks of harmfulness, protection of the aquatic environment/bioaccumulation; set-up: key: − = harmfulness demonstrated; + = slight risk; ++ = very slight risks
Description: For each of Compositions A to E, the characteristics of odor (“ODOR”), of stability at alkaline pH, i.e. at a pH of 9 (“STAB.”) and of risks of harmfulness in terms of protection of the aquatic environment/bioaccumulation (“BIO.”) are taken up in the table below according to the following notation: […]

[6] = Rate of evaporation with respect to n-butyl acetate; type: physicochemical; details: 20° C.
[7] = Ready biodegradability, OECD No. 301 A (DOC Die-away Test); details: at 28 days
[8] = tested on: aquatic organisms, such as bacteria, freshwater algae, daphnia and freshwater fish; assay: Toxicity for aquatic organisms
man = details: cited from earlier work; for toxicity for man: compulsory labelings T, Xn, R40, R45 and/or R65
[9] = advantages hitherto described; cited from earlier work
[10] = compulsory labelings; cited from earlier work

FLA = flammability [1]: +
FLA: flashpoint [1]: 46 °C
VOL = volatility/aptitude for drying [2]: +
RIN = rinsability with water (Rinsability with water): +
SMILES: CCOC(=O)C(C)O (stereo not shown) [Composition 4, ethyl lactate]
flashpoint [3]: 46 °C

SMILES: CO[C@H]1CO[C@H]2[C@@H]1OC[C@H]2OC [Composition 5, dimethyl isosorbide]
FLA = flammability [1]: +
FLA: flashpoint [1]: 120 °C
VOL = volatility/aptitude for drying [2]: 0
RIN = rinsability with water (Rinsability with water): ++
BIO = biodegradability [4]: +
BIO. (risks of harmfulness, aquatic environment/bioaccumulation) [5]: ++
rate of evaporation with respect to n-butyl acetate [6]: less than 0.005
ready biodegradability (OECD No. 301 A) [7]: ~25%
toxicity for aquatic organisms [8]: absence of toxicity
irritant nature and toxicity to man (man; advantages hitherto described): absence of irritant nature and of toxicity to man
miscibility with water [9]: in all proportions

SMILES: C=C(C)[C@H]1CC=C(C)CC1 [Composition 3, dipentene]
FLA = flammability [1]: +
FLA: flashpoint [1]: 48 °C
VOL = volatility/aptitude for drying [2]: ++
RIN = rinsability with water (Rinsability with water): 0
BIO = biodegradability [4]: +

SMILES: C=C(C)[C@H]1CC=C(C)CC1 [d-limonene]
flashpoint [3]: 48 °C

SMILES: ClCCl [Composition 2, dichloromethane]
FLA = flammability [1]: −
VOL = volatility/aptitude for drying [2]: ++
RIN = rinsability with water (Rinsability with water): 0
BIO = biodegradability [4]: −
toxicity for man (man): a certain toxicity for man
toxicity for the environment [10]: compulsory labelings R51/R53

SMILES: ClC=C(Cl)Cl [Composition 1, trichloroethylene]
FLA = flammability [1]: −
VOL = volatility/aptitude for drying [2]: ++
RIN = rinsability with water (Rinsability with water): 0
BIO = biodegradability [4]: −
toxicity for man (man): a certain toxicity for man
toxicity for the environment [10]: compulsory labelings R51/R53
